From patent US20160130278A1 (TAISHO PHARMACEUTICAL CO., LTD, priority 2013, published 2016)

biological target: T1, human type 1 glycine transporter (GlyT1) (Homo sapiens, UniProt P48067); assay: Glycine uptake inhibition experiment ([3H]glycine uptake); assay type: cell-based; details: GlyT1
T1 construct: T98G cells (glioma cells) expressing human type 1 glycine transporter (GlyT1) were used
T1 sequence (P48067 1-706): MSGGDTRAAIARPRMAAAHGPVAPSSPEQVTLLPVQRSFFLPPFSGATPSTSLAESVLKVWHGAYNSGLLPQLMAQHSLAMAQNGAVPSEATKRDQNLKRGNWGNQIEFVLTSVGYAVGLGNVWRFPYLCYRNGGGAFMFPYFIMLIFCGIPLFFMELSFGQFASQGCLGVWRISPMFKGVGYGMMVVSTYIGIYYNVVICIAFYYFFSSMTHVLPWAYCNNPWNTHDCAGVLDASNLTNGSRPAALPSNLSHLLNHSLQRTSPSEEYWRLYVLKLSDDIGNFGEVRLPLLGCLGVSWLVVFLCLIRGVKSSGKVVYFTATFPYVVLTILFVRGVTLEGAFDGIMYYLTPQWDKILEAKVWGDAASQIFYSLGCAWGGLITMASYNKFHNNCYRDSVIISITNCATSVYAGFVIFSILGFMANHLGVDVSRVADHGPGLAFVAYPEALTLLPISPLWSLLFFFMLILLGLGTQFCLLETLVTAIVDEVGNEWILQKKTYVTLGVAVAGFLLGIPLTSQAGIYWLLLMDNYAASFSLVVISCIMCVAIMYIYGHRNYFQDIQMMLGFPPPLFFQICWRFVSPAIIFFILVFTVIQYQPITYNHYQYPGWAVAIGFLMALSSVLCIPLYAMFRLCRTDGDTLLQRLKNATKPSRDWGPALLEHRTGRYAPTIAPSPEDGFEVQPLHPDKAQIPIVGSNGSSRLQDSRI
How it was run: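 T98G glioma cells expressing human GlyT1 were pretreated 10 min with compound in HEPES buffer pH 7.4 (0.2% BSA), then incubated with compound plus 250 nM final [3H]glycine for 15 min at room temperature. Intracellular radioactivity was counted after NaOH lysis; 10 μM ALX5407 defined non-specific uptake. IC50 came from 10^−9–10^−5 M curves.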

Compound | IC50 [nM]
O=C(NC(c1ccccc1Cl)[C@]1(O)CC[C@@H](F)CC1)c1cc(C(F)(F)F)ncc1Cl (single isomer, unassigned) [Compound 366, 5-chloro-N-[(2-chlorophenyl)(cis-4-fluoro-1-hydroxycyclohexyl)methyl]-2-(trifluoromethyl)pyridine-4-carboxamide] | 320
O=C(NC(c1cccnc1)[C@]1(O)CC[C@@H](F)CC1)c1nccc(C(F)(F)F)c1Cl (single isomer, unassigned) [Compound 266, 3-chloro-N-[(cis-4-fluoro-1-hydroxycyclohexyl)(pyridin-3-yl)methyl]-4-(trifluoromethyl)pyridine-2-carboxamide] | 1600
O=C(NC(c1cccc(F)c1Cl)[C@]1(O)CC[C@@H](F)CC1)c1ccc(C(F)(F)F)cc1Cl (single isomer, unassigned) [Compound 298, 2-chloro-N-[(2-chloro-3-fluorophenyl)(cis-4-fluoro-1-hydroxycyclohexyl)methyl]-4-(trifluoromethyl)benzamide] | 410
O=C(NC(c1cccc(F)c1Cl)[C@]1(O)CC[C@@H](F)CC1)c1nccc2ncccc12 (single isomer, unassigned) [Compound 256, N-[(2-chloro-3-fluorophenyl)(cis-4-fluoro-1-hydroxycyclohexyl)methyl]-1,6-naphthyridin-5-carboxamide] | 2100
O=C(NC(c1cccc(Cl)c1)[C@]1(O)CC[C@@H](F)CC1)c1nccc(C(F)(F)F)c1Cl (stereo partly drawn) [Compound 153, 3-chloro-N-[(3-chlorophenyl)(cis-4-fluoro-1-hydroxycyclohexyl)methyl]-4-(trifluoromethyl)pyridine-2-carboxamide] | 98
O=C(NC(c1cc(Cl)ccn1)[C@]1(O)CC[C@@H](F)CC1)c1cc(C(F)(F)F)ncc1Cl (single isomer, unassigned) [Compound 333, 5-chloro-N-[(4-chloropyridin-2-yl)(cis-4-fluoro-1-hydroxycyclohexyl)methyl]-2-(trifluoromethyl)pyridine-4-carboxamide] | 1700
O=C(NC(c1cccc(Cl)c1Cl)C1(O)CCC(F)(F)CC1)c1nccc(C(F)(F)F)c1Cl (single isomer, unassigned) [Compound 136, 3-chloro-N-[(2,3-dichlorophenyl)(4,4-difluoro-1-hydroxycyclohexyl)methyl]-4-(trifluoromethyl)pyridine-2-carboxamide] | 3700
O=C(NC(c1cccnc1Cl)C1(O)CCC(F)(F)CC1)c1nccc(C(F)(F)F)c1Cl (single isomer, unassigned) [Compound 340, 3-chloro-N-[(2-chloropyridin-3-yl)(4,4-difluoro-1-hydroxycyclohexyl)methyl]-4-(trifluoromethyl)pyridine-2-carboxamide] | 320
O=C(NC(c1ccccc1Br)C1(O)CCCC1)c1nccc(C(F)(F)F)c1Cl (centres unmarked) [Compound 32, N-[(2-bromophenyl)(1-hydroxycyclopentyl)methyl]-3-chloro-4-(trifluoromethyl)pyridine-2-carboxamide] | 60
CS(=O)(=O)c1ccc(C(F)(F)F)cc1C(=O)NC(c1cccc(F)c1Cl)[C@]1(O)CC[C@@H](F)CC1 (single isomer, unassigned) [Compound 372, N-[(2-chloro-3-fluorophenyl)(cis-4-fluoro-1-hydroxycyclohexyl)methyl]-2-(methylsulfonyl)-5-(trifluoromethyl)benzamide] | 41
O=C(NC(c1ccc(Cl)cc1)C1(O)CCCC1)c1nccc(C(F)(F)F)c1Cl (centres unmarked) [Compound 46, 3-chloro-N-[(4-chlorophenyl)(1-hydroxycyclopentyl)methyl]-4-(trifluoromethyl)pyridine-2-carboxamide] | 1700
Cc1cccc(C(NC(=O)c2nccc(C(F)(F)F)c2Cl)C2(O)CCCC2)c1 (centres unmarked) [Compound 48, 3-chloro-N-[(1-hydroxycyclopentyl)(3-methylphenyl)methyl]-4-(trifluoromethyl)pyridine-2-carboxamide] | 670

The remaining compounds from weak to strong by IC50, led by results:

IC50 [nM] | Compound
8800 | O=C(NC(c1cccc(F)c1Cl)[C@]1(O)CC[C@@H](F)CC1)c1c(Cl)nc2ccccn12 (single isomer, unassigned) [Compound 262, 2-chloro-N-[(2-chloro-3-fluorophenyl)(cis-4-fluoro-1-hydroxycyclohexyl)methyl]imidazo[1,2-a]pyridine-3-carboxamide]
3500 | CC(C)n1cc(-c2cccc(C(NC(=O)c3nccc(C(F)(F)F)c3Cl)C3(O)CCC(F)(F)CC3)c2)cn1 (single isomer, unassigned) [Compound 133, 3-chloro-N-[(4,4-difluoro-1-hydroxycyclohexyl){3-[1-(propan-2-yl)-1H-pyrazol-4-yl]phenyl}methyl]-4-(trifluoromethyl)pyridine-2-carboxamide]
1000 | O=C(NC(c1ccccc1)C1(O)CCCC1)c1cccc(C(F)(F)F)c1Cl (centres unmarked) [Compound 11, 2-chloro-N-[(1-hydroxycyclopentyl)(phenyl)methyl]-3-(trifluoromethyl)benzamide]
890 | O=C(NC(c1ccc(Cl)nc1)[C@]1(O)CC[C@@H](F)CC1)c1nccc(C(F)(F)F)c1Cl (single isomer, unassigned) [Compound 291, 3-chloro-N-[(6-chloropyridin-3-yl)(cis-4-fluoro-1-hydroxycyclohexyl)methyl]-4-(trifluoromethyl)pyridine-2-carboxamide]
890 | O=C(NC(c1cccc(F)c1Cl)[C@]1(O)CC[C@@H](F)CC1)c1cccc(Cl)c1C(F)(F)F (single isomer, unassigned) [Compound 312, 3-chloro-N-[(2-chloro-3-fluorophenyl)(cis-4-fluoro-1-hydroxycyclohexyl)methyl]-2-(trifluoromethyl)benzamide]
880 | O=C(NC(c1cccc(-c2ncccn2)c1)C1(O)CCC(F)(F)CC1)c1nccc(C(F)(F)F)c1Cl (centres unmarked) [Compound 160, 3-chloro-N-{(4,4-difluoro-1-hydroxycyclohexyl)[3-(pyrimidin-2-yl)phenyl]methyl}-4-(trifluoromethyl)pyridine-2-carboxamide]
740 | CCn1cc(-c2cccc(C(NC(=O)c3c(C)cccc3C)C3(O)CCC(F)(F)CC3)c2)cn1 (centres unmarked) [Compound 120, N{(4,4-difluoro-1-hydroxycyclohexyl)[3-(1-ethyl-1H-pyrazol-4-yl)phenyl]methyl}-2,6-dimethylbenzamide]
550 | O=C(NC(c1cc(Cl)ccc1F)[C@]1(O)CC[C@@H](F)CC1)c1ccnc(C(F)(F)F)c1Cl (single isomer, unassigned) [Compound 376, 3-chloro-N-[(5-chloro-2-fluorophenyl)(cis-4-fluoro-1-hydroxycyclohexyl)methyl]-2-(trifluoromethyl)pyridine-4-carboxamide]
390 | O=C(NC(c1ccc(F)c(Cl)c1)[C@]1(O)CC[C@@H](F)CC1)c1nccc(C(F)(F)F)c1Cl (single isomer, unassigned) [Compound 225, 3-chloro-N-[(3-chloro-4-fluorophenyl)(cis-4-fluoro-1-hydroxycyclohexyl)methyl]-4-(trifluoromethyl)pyridine-2-carboxamide]
380 | O=C(NC(c1ccccc1Cl)[C@]1(O)CC[C@@H](F)CC1)c1cc(C(F)(F)F)cnc1Cl (single isomer, unassigned) [Compound 367, 2-chloro-N-[(2-chlorophenyl)(cis-4-fluoro-1-hydroxycyclohexyl)methyl]-5-(trifluoromethyl)pyridine-3-carboxamide]
350 | O=C(NC(c1ccccc1)[C@]1(O)CC[C@@H](F)CC1)c1nccc(C(F)(F)F)c1Cl (stereo partly drawn) [Compound 158, 3-chloro-N-[(cis-4-fluoro-1-hydroxycyclohexyl)(phenyl)methyl]-4-(trifluoromethyl)pyridine-2-carboxamide]
250 | O=C(NC(c1cccc(F)n1)C1(O)CCC(F)(F)CC1)c1ccnc(C(F)(F)F)c1Cl (single isomer, unassigned) [Compound 359, 3-chloro-N-[(4,4-difluoro-1-hydroxycyclohexyl)(6-fluoropyridin-2-yl)methyl]-2-(trifluoromethyl)pyridine-4-carboxamide]
160 | CCn1cc(-c2cccc(C(NC(=O)c3ccnc(C(F)(F)F)c3Cl)C3(O)CCC(F)(F)CC3)c2)cn1 (centres unmarked) [Compound 157, 3-chloro-N-[(4,4-difluoro-1-hydroxycyclohexyl)[3-(1-ethyl-1H-pyrazol-4-yl)phenyl]methyl]-2-(trifluoromethyl)pyridine-4-carboxamide]
74 | O=C(N[C@@H](c1cccc(-c2ccccn2)c1)C1(O)CCCC1)c1nccc(C(F)(F)F)c1Cl [Compound 35, 3-chloro-N-{(S)-(1-hydroxycyclopentyl)[3-(pyridin-2-yl)phenyl]methyl}-4-(trifluoromethyl)pyridine-2-carboxamide]
